# Laboratory results taken from publication PMC9147645, “Food-Derived β-Carboline Alkaloids Ameliorate Lipid Droplet Accumulation in Human Hepatocytes” (Pharmaceuticals, 2022).
# Like-named read-outs stand apart in the source and are kept apart here.
# What was measured:
# [1] = Cytotoxicity / lipocytotoxicity assay (CCK-8); type: cell-based; conditions: human; for IC50 at 24 h: HepG2, values given in the text, read-out: IC50 (cytotoxicity, cell viability)
# Procedure: (§1) HepG2 cells were purchased from the American Type Culture Collection (ATCC) (Manassas, VA, USA). High-glucose DMEM containing 10% heat-inactivated FBS and 1% penicillin–streptomycin was maintained under a humidified atmosphere at 37 °C with 5% CO2, as indicated in the Supplementary Materials. HepG2 cells (1.5 × 10^4/well) in DMEM supplemented with 10% FBS were seeded into a 96-well plate. A cytotoxicity assay was performed according to the manufacturer’s protocol using CCK-8 (Dojindo Molecular Technologies), as indicated in the Supplementary Materials (Materials and Methods). […]
# (§2) 2 1.2. Cytotoxicity assay […] HepG2 cells (1.5 × 10^4/well) in DMEM supplemented with 10% FBS were under reduced pressure, and H2O (25 ml) was added. Then the solution was seeded into a 96-well plate. The cytotoxicity assay was done using CCK-8 extracted with AcOEt after adjusted to 9–10 with aq. NaOH solution. The organic (Dojindo Molecular Technologies) according to the manufacturer's protocol. […]
# (§3) Compounds 1 and 3. To a stirred soln. Compound 10 (218 mg, 1.00 mmol), 5- Technologies, Rockville, USA) according to the manufacturer ’sinstructions. Cell Acetoxymethylfurfural (1, 168 mg, 1.00 mmol) and Nano CuO (7.955 mg, 0.1 suspension (100 μl/well) was inoculated in a 96-well plate (Iwaki, Japan), and mmol) were added 6 ml of DMF. The mixture was stirred at 90℃ for 16 h. The pH once monolayers were observed, treatments were added (n = 3 per each of the aqueous solution was adjusted to 9–10 with aq NaOH solution after adding treatment). Cells were then pre-incubated with the treatments for 24 h before H O. After extracting the solution with AcOEt, the organic layer was washed with assay to determine cell viability.Absorbance was measured at 450 nm using a 2 plate reader (PerkinElmer-ARVO-MX-ID 10533234, Japan). […]
# (§4) [5-(hydroxymethyl)-2-furanyl]-1H-pyrido[3,4-b]indole-3-carboxylic acid (2, CAS culture medium was removed from each dish, and cells were washed Registry Number 896466-77-6); flazine methyl ester acetate (3, CAS Registry and rinsed with 1× PBS. Cells were then fixed for 20 min in 10% formalin and Number 104537-95-3); flazin (4, CAS Registry Number 100041-05-2); washed twice using PBS. Then, Oil Red O dye was added to the dishes and incubated for 20 min. Finally, the dye was removed from each dish and cells 5
# human HepG2 = system: human HepG2; design: method as in PMID 30103390; conditions: human HepG2, 180 μM; cited from earlier work
# [2] = system: nuclear factor erythroid 2-related factor 2 (Nrf2); conditions: hepatocytes; cited from earlier work
# HepG2 cells [3] = assay: Lipid droplet accumulation inhibition (LDAI) assay, Oil Red O, oleic acid-loaded cells; type: cell-based, human; conditions: for Induction of LDs: HepG2
# Procedure: LDAI assay: LDAI activity was determined using an Oil Red O assay with 24-well plates (n = 4 per treatment). Staining of LDs in cultured hepatocytes was performed according to the manufacturer’s instructions, based on the Oil Red O staining assay. Briefly, HepG2 cells (1.5 × 10^4/well) were supplemented with 10% FBS, cultured, seeded in 35-mm dishes, and treated with the tested samples after 24 h. Oil Red O, a fat-soluble dye, is widely used for staining neutral lipids in LDs, as described in the Supplementary Materials. […]
# 2 1.2. Cytotoxicity assay dropwise under ice-cooling. […]
# Lipid droplet accumulation inhibition assay and Real-Ti me LDAI acid tryptophan (9) and compound 12 were subjected to acid conversion at 90 °C accumulation in acetic acid to obtain compound 2 (1H and 13C, see in Supporting Information). Lipid droplet accumulation inhibition (LDAI) activity was determined using an Synthesis of Compound 4. To a stirred soln . compound 3 in MeOH was added oilred assay in a 24-well plate according to the manufacturer ’sinstructions (n = 4 with NaOH (2 mol/L). Compound 4 was obtained after stirringthe mixture at 65℃ per each treatment). Real-time oleic induced-LD inhibition was performed by for 5 h. (1H and 13C, see Figures S10 and S11). We also prepared similar using a Nikkon microscope. Morphological analysis of HepG2 cells after compounds without any substituent at the C-1 position in the C-ring using a one- treatment with control(-OA) and (+OA) or compound at different concentrations pot Pictet–Spengler reaction (6-8). was determined by staining with AO/EB.
# Synthetic b-carboline alkaloids (1-8): 1.4. Oil Red O Staining.
# CAS Registry Number of all the series of synthetic b-carboline alkaloids (1-8) HepG2 cells were cultured and treated in 35 mm dishes, as described above. were subjected to biological evaluation: 1H-Pyrido[3,4-b]indole-3-carboxylic acid, Oil Red O dye was used for LD staining. Oil Red O was dissolved in isopropanol 1-[5-[(acetyloxy)methyl]-2-furanyl]-2,3,4,9-tetrahydro-, methyl ester, (1S-trans)- as 3 mg/mL and diluted with water so that isopropanol became 60%. Oil Red O (9CI) (1,CAS Registry Number 11 5 1 0 7-75-0;11 5 1 0 7-76-1);2,3,4,9-Tetrahydro-1-solutionwasfilteredbya0.4 μm pore syringe filter.For cellular staining, the […]
# HepG2 cells [4] = assay: Cytotoxicity / lipocytotoxicity assay (CCK-8); type: cell-based; conditions: 0.25 mM oleic acid, 24 h, HepG2
# Procedure: as §1, §2, §3, §4
# HepG2 cells [5] = conditions: 100 μM; cited from earlier work
# [6] = HepG2 cells, HepG2, DMEM loaded with fatty acid (+OA), read-out: Lipocytotoxicity (LC50), concentration at which 50% of cells died
# [7] = HepG2 cells, HepG2, DMEM without fatty acid (−OA), read-out: Cytotoxicity (CC50), concentration at which 50% of cells died
# [8] = Homo sapiens, HepG2, 24 h, HepG2 + 0.25 mM oleic acid, vs untreated control (+OA)
Structure (SMILES),"CC50 at 24 h [1, 6] [µM]","CC50 at 24 h [1, 7] [µM]",inhibition at 400 µM (HepG2 cells [3]; [8]) [%],further results
"O=C(O)C1Cc2c([nH]c3ccccc23)CN1 (stereo not drawn) [Compound 6, 1,2,3,4-Tetrahydro-β-carboline-3-carboxylic acid]",520,505,–,–
Oc1cc(O)c2cc(O)c(-c3cc(O)c(O)c(O)c3)[o+]c2c1 [Delphinidin],–,–,–,Hepatic triglyceride accumulation (human HepG2): ameliorated hepatic triglyceride accumulation
"COc1c(O)cc(CO)cc1O [DHMBA, 3,5-dihydroxy-4-methoxybenzyl alcohol, reference compound]",–,–,–,Nrf2-dependent antioxidant action [2]: Nrf2-dependent antioxidant action
"COC(=O)c1cc2c(cn1)[nH]c1ccccc12 [Compound 7, methyl β-carboline-3-carboxylate]",–,–,–,"CC50 at 24 h ([1]; HepG2, DMEM loaded with fatty acid (+OA), read-out: Lipocytotoxicity (LC50), concentration at which 50% of cells died): 498 µM; CC50 at 24 h ([1]; HepG2, DMEM without fatty acid (−OA), read-out: Cytotoxicity (CC50), concentration at which 50% of cells died): 390 µM; inhibition at 400 µM (HepG2 cells [3]; Homo sapiens, 24 h, HepG2 + 0.25 mM oleic acid, vs untreated control (+OA)): 25.4%"
"O=C(O)c1cc2c(cn1)[nH]c1ccccc12 [Compound 8, β-Carboline-3-carboxylic acid]",530,549,81.8,–
"COC(=O)C1Cc2c([nH]c3ccccc23)CN1 (stereo not drawn) [Compound 5, methyl 1,2,3,4-tetrahydro-β-carboline-3-carboxylate]",488,397,42,–
"COC(=O)c1cc2c([nH]c3ccccc32)c(-c2ccc(COC(C)=O)o2)n1 [Compound 3, flazin methyl ester acetate]",131,66.8,–,"IC50 at 24 h ([1]; HepG2 cells): 66.9 µM; inhibition at 50 µM (HepG2 cells [3]; Homo sapiens, HepG2, 24 h, 50 μM, HepG2 + 0.25 mM oleic acid, vs untreated control (+OA)): 26%"
"COC(=O)[C@@H]1Cc2c([nH]c3ccccc23)C(c2ccc(COC(C)=O)o2)N1 (stereo partly shown) [Compound 1, Methyl 1,2,3,4-Tetrahydro-1-(5-[(acetyloxy)methyl]-2-furanyl)-9H-pyrido [3,4-b]indole-3-carboxylic acid]",442,488,63.2,IC50 at 24 h ([1]; HepG2 cells): 488 µM
"CCCCCCCC/C=C\CCCCCCCC(=O)O [oleic acid, reference compound]",–,–,–,"Cell viability after oleic acid treatment (in words) (HepG2 cells [4]): no cytotoxicity; Induction of LDs (HepG2 cells [3]; 0.25 mM oleic acid, 24 h): 2.6 fold; Induction of LDs (HepG2 cells [3]; 0.5 mM oleic acid, 24 h): 2.8 fold"
O=c1c(-c2ccc(O)cc2)coc2c([C@@H]3O[C@H](CO)[C@@H](O)[C@H](O)[C@H]3O)c(O)ccc12 [Puerarin],–,–,–,Hepatic steatosis (HepG2 cells [5]): ameliorates hepatic steatosis
